Measurements published in ChEMBL document CHEMBL3885861, “Open TG-GATES”.

Organism: Rattus norvegicus
Assay: Open TG-GATES - Regimen: Daily Repeat
Format: toxicity, organism-based, Sprague-Dawley
Parameters: regimen Daily Repeat, gender Male, age 6 weeks
Conditions: in vivo, po, 0 mg/kg, route gavage, dose level Control; for APTT / Bas / Eos / Fbg / Hb / Ht / Lym / MCH / MCHC / MCV / Mono / Neu / PT / Plat / RBC / Ret / WBC: tissue Blood; for KIDNEY_L / KIDNEY_R / KIDNEY_TOTAL: tissue Kidney; for LIVER: tissue Liver; for ALP / AST / BUN / CRE / Ca / Cl / DBIL / GLC / IP / K / LDH / Na / PL / RALB / TBIL / TC / TG / TP / gamma-GTP: tissue Plasma

## COc1ccc2[nH]c([S+]([O-])Cc3ncc(C)c(OC)c3C)nc2c1 (stereo not drawn) [OMEPRAZOLE]
72 h, time 3 day
  TERMINAL_BW: 237.1 g
  APTT: 19.5 s
  Bas: 0%
  Eos: 1.2%
  Fbg: 210.6 mg/dL
  Hb: 13.1 g/dL
  Ht: 38%
  Lym: 80.8%
  MCH: 21.2 pg
  MCHC: 34.4%
  MCV: 61.6 fL
  Mono: 3%
  Neu: 14.8%
  PT: 12.2 s
  Plat: 128.5 x10_4/uL
  RBC: 616.6 x10_4/ul
  Ret: 5.4%
  WBC: 91.3 x10_2/uL
  KIDNEY_L: 1 g
  KIDNEY_R: 1.1 g
  KIDNEY_TOTAL: 2.1 g
  LIVER: 11.7 g
  ALP: 960.2 IU/L
  AST: 66.4 IU/L
  BUN: 15.2 mg/dL
  CRE: 0.4 mg/dL
  Ca: 10.7 mg/dL
  Cl: 102.2 meq/L
  DBIL: 0.07 mg/dL
  GLC: 233.8 mg/dL
  IP: 7 mg/dL
  K: 3.6 meq/L
  LDH: 162.8 IU/L
  Na: 141.6 meq/L
  PL: 144.4 mg/dL
  RALB: 3.3 g/dL
  TBIL: 0.1 mg/dL
  TC: 72.2 mg/dL
  TG: 91.6 mg/dL
  TP: 5.6 g/dL
  gamma-GTP: 1.2 IU/L
[…], time 7 day
  TERMINAL_BW: 272.8 g
  APTT: 20.8 s
  Bas: 0%
  Eos: 1%
  Fbg: 226.4 mg/dL
  Hb: 13.9 g/dL
  Ht: 40.3%
  Lym: 79.2%
  MCH: 20.8 pg
  MCHC: 34.5%
  MCV: 60.2 fL
  Mono: 3%
  Neu: 16.2%
  PT: 11.9 s
  Plat: 124.2 x10_4/uL
  RBC: 669.6 x10_4/ul
  Ret: 4.8%
  WBC: 124.1 x10_2/uL
  KIDNEY_L: 1.2 g
  KIDNEY_R: 1.2 g
  KIDNEY_TOTAL: 2.3 g
  LIVER: 13.4 g
  ALP: 908.8 IU/L
  AST: 73.8 IU/L
  BUN: 16.8 mg/dL
  CRE: 0.4 mg/dL
  Ca: 10.8 mg/dL
  Cl: 100.8 meq/L
  DBIL: 0.09 mg/dL
  GLC: 205.2 mg/dL
  IP: 7.3 mg/dL
  K: 3.9 meq/L
  LDH: 225.8 IU/L
  Na: 140 meq/L
  PL: 168.4 mg/dL
  RALB: 3.3 g/dL
  TBIL: 0.1 mg/dL
  TC: 78.8 mg/dL
  TG: 144.6 mg/dL
  TP: 5.7 g/dL
  gamma-GTP: 0.8 IU/L
[…], time 14 day
  TERMINAL_BW: 317.5 g
  APTT: 19.5 s
  Bas: 0%
  Eos: 1%
  Fbg: 215.4 mg/dL
  Hb: 14.7 g/dL
  Ht: 42.6%
  Lym: 79%
  MCH: 20.8 pg
  MCHC: 34.6%
  MCV: 59.9 fL
  Mono: 2.6%
  Neu: 16.2%
  PT: 12.3 s
  Plat: 123.5 x10_4/uL
  RBC: 711 x10_4/ul
  Ret: 3.9%
  WBC: 94.4 x10_2/uL
  KIDNEY_L: 1.3 g
  KIDNEY_R: 1.3 g
  KIDNEY_TOTAL: 2.5 g
  LIVER: 13.5 g
  ALP: 734.6 IU/L
  AST: 61.4 IU/L
  BUN: 17.2 mg/dL
  CRE: 0.5 mg/dL
  Ca: 10.6 mg/dL
  Cl: 102 meq/L
  DBIL: 0.08 mg/dL
  GLC: 222.6 mg/dL
  IP: 6.5 mg/dL
  K: 3.4 meq/L
  LDH: 171 IU/L
  Na: 139.8 meq/L
  PL: 139.6 mg/dL
  RALB: 3.4 g/dL
  TBIL: 0.1 mg/dL
  TC: 69 mg/dL
  TG: 95.4 mg/dL
  TP: 5.7 g/dL
  gamma-GTP: 1 IU/L
[…], time 28 day
  TERMINAL_BW: 379.8 g
  APTT: 20.9 s
  Bas: 0%
  Eos: 1%
  Fbg: 228.8 mg/dL
  Hb: 15.6 g/dL
  Ht: 45%
  Lym: 83.2%
  MCH: 19.4 pg
  MCHC: 34.8%
  MCV: 55.9 fL
  Mono: 2%
  Neu: 13%
  PT: 12.4 s
  Plat: 110.6 x10_4/uL
  RBC: 804.8 x10_4/ul
  Ret: 2.2%
  WBC: 102.7 x10_2/uL
  KIDNEY_L: 1.3 g
  KIDNEY_R: 1.3 g
  KIDNEY_TOTAL: 2.6 g
  LIVER: 14.7 g
  ALP: 583 IU/L
  AST: 64.8 IU/L
  BUN: 16.6 mg/dL
  CRE: 0.5 mg/dL
  Ca: 10.7 mg/dL
  Cl: 102.6 meq/L
  DBIL: 0.078 mg/dL
  GLC: 235.4 mg/dL
  IP: 5.8 mg/dL
  K: 3.8 meq/L
  LDH: 142.8 IU/L
  Na: 141.2 meq/L
  PL: 137.8 mg/dL
  RALB: 3.4 g/dL
  TBIL: 0.1 mg/dL
  TC: 67.8 mg/dL
  TG: 104.8 mg/dL
  TP: 6 g/dL
